Laboratory results published in patent US20260297042A1, “BIARYLAMIDE DERIVATIVES AND THEIR USE AS PKMYT1 INHIBITORS” (CANCER RESEARCH TECHNOLOGY LIMITED, priority 2023, published 2026).

How the values were obtained:
[1] = biological target: T1, Cellular PKMYT1 Biomarker CDK1 pT14 (Homo sapiens, UniProt Q99640); assay: Inhibition of cellular PKMYT1 biomarker CDK1 pT14 in OVCAR 3 cells (immunoblot); assay type: cell-based; conditions: 20 hours incubation
T1 construct: read-out CDK1 phospho-T14 immunoblot
T1 sequence (Q99640 1-499): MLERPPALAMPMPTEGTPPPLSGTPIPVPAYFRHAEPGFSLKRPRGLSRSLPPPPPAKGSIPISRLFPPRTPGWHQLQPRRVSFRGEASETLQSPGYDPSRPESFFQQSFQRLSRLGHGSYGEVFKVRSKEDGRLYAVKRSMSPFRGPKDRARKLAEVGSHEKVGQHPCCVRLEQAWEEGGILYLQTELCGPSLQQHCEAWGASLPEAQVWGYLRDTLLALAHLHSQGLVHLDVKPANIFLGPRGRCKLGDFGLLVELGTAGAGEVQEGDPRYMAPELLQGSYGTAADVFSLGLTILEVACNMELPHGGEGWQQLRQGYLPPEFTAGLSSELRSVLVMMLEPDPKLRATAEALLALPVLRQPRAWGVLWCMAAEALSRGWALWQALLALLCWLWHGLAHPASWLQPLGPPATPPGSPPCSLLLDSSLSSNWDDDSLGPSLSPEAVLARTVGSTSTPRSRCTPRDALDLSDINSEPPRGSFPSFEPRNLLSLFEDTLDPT
Outline: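 Confluent OVCAR 3 cells treated with a compound concentration range for 20 h at 37 °C. Lysates analysed by automated capillary immunoblot for CDK1 phospho-T14, with vinculin, fluorescence detection; IC50 by regression.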

[2] = test system: OVCAR 3 cells; assay: Cancer cell line proliferation assay, ATP-based cell viability (Cell Titre Glow), OVCAR 3 (CCNE1-amplified); conditions: KYSE30 (normal CCNE1) GI50 vs. OVCAR 3 (CCNE1-amplified) GI50
Outline: (§1)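 Cells were treated with PKMYT1 inhibitors, then proliferation was assessed with CellTiter-Glo and luminescence read. GI50 values were fitted from the resulting data.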

[3] = test system: KYSE-30 cells; assay: Cancer cell line proliferation assay, ATP-based cell viability (Cell Titre Glow), KYSE-30 (normal CCNE1); conditions: Homo sapiens, KYSE-30 cells (normal CCNE1), concentration that achieves 50% cell growth proliferation inhibition, read-out: KYSE30 Gl50
Outline: as §1

[4] = biological target: T2, Human PKMYT1 (Homo sapiens, UniProt Q99640); assay: PKMYT1 biochemical ADP-Glo enzymatic assay; conditions: ADP-Glo
T2 construct: Human PKMYT1 75-362 was cloned as a TEV cleavable 6xHis fusion; 6xHis (TEV cleavable) (cleaved yes); made in house; host or cells: bacterial cells
T2 sequence (Q99640 75-362): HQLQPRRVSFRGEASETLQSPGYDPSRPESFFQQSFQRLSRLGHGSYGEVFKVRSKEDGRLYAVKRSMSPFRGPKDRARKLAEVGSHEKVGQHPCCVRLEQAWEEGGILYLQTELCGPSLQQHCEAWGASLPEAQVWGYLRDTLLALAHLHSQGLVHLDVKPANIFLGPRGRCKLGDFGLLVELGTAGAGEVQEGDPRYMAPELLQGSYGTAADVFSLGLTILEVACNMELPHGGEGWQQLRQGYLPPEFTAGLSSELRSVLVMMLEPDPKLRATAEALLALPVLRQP
Outline: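 PKMYT1 75-362 (His-cleaved, bacterial) 15 nM; ATP 500 µM; HEPES pH 7.5, MgCl2, EGTA, Brij-35, 1% DMSO; 60 min, 26 °C; ADP-Glo Max luminescence; 10-pt 3-fold titration → IC50; replicates within 3-fold, r2 >0.9.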

[5] = biological target: T3, WEE1 (Homo sapiens, UniProt P30291); assay: Selectivity versus WEE1 assay (ADP-Glo enzymatic assay); assay type: biochemical; conditions: for IC50: ADP-Glo; for PKMYT1 vs. WEE1 selectivity: fold difference in selectivity for PKMYT1 over WEE1
T3 construct: purchased Thermo Fisher PR7373A
Outline: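 15 nM WEE1, 30 µM ATP, 50 mM HEPES pH 7.5, 10 mM MgCl2, 1 mM EGTA, 0.01% Brij-35, 1% DMSO; 60 min, 26° C; ADP-Glo luminescence; IC50 from curve fit, replicates within 3-fold, r2 >0.9.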

[6] = PKMYT1 kinase domain 15 nM, banded values
[7] = 15 nM PKMYT1 kinase domain, 500 µM ATP, 60 minutes at 26° C., banded
[8] = 15 nM WEE1, 60 minutes at 26° C., banded
[9] = banded, ">N" = at least in this band but could be higher

T3 sequence (P30291 whole entry): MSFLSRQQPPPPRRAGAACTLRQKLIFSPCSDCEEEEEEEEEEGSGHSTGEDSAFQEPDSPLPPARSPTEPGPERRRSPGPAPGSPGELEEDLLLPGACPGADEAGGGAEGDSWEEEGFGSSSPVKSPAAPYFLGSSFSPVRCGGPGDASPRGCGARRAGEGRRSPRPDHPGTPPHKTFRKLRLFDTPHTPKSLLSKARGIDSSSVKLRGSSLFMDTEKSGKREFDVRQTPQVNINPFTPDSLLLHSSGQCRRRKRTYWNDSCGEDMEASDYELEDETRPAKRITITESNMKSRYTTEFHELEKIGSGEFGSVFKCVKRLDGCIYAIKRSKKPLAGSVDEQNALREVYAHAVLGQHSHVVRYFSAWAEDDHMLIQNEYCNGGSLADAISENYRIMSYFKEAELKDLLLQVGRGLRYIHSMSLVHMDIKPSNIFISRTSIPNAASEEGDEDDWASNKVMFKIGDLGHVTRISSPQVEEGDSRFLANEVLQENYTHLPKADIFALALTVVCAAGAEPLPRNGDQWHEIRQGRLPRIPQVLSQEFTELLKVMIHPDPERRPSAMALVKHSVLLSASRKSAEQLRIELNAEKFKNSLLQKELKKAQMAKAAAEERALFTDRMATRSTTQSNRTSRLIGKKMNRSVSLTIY

| Structure (SMILES) | IC50 [1] | Selectivity ratio KYSE30 Gl50 vs. OVCAR3 Gl50 [2] | GI50 [3] | IC50 [4, 6] | IC50 ([5]; WEE1 15 nM, banded values) | PKMYT1 vs. WEE1 selectivity ([5]; banded) | IC50 [4, 7] | IC50 [5, 8] | PKMYT1 vs. WEE1 selectivity [5, 9] |
| --- | --- | --- | --- | --- | --- | --- | --- | --- | --- |
| Cc1cn(CCF)nc1Nc1ncc(C(=O)Nc2c(C)ccc(O)c2C)s1 [BAA-470, 2-((1-(2-fluoroethyl)-4-methyl-1H-pyrazol-3-yl)amino)-N-(3-hydroxy-2,6-dimethylphenyl)thiazole-5-carboxamide] | < 100 nM | Y (>20 fold) | > 5000 nM | < 50 nM | 1000 to 11000 nM | X (100-<1000 fold) |  |  |  |
| Cc1ccc(O)c(C)c1NC(=O)c1cnc(Nc2cc(N3CCOCC3)ccn2)s1 [BAA-402, N-(3-hydroxy-2,6-dimethylphenyl)-2-((4-morpholinopyridin-2-yl)amino)thiazole-5-carboxamide] | < 100 nM | Y (>20 fold) | 500 to 5000 nM | < 50 nM | 50 to 1000 nM | W (10-<100 fold) |  |  |  |
| Cc1ccc(O)c(C)c1NC(=O)c1cnc(Nc2nn(CC(F)F)cc2Cl)s1 [BAA-569, 2-((4-chloro-1-(2,2-difluoroethyl)-1H-pyrazol-3-yl)amino)-N-(3-hydroxy-2,6-dimethylphenyl)thiazole-5-carboxamide] | < 100 nM | Y (>20 fold) | 500 to 5000 nM | < 50 nM | 1000 to 11000 nM | X (100-<1000 fold) |  |  |  |
| Cc1nc(Nc2ncc(C(=O)Nc3c(C)ccc(O)c3C)s2)cc(N2CCN(CCO)CC2)n1 [BAA-220, N-(3-hydroxy-2,6-dimethyl-phenyl)-2-[[6-[4-(2-hydroxyethyl)piperazin-1-yl]-2-methyl-pyrimidin-4-yl]amino]thiazole-5-carboxamide] | 100 to 1000 nM | Y (>20 fold) | > 5000 nM |  |  |  | < 50 nM | 50 to 1000 nM | W (10-<100 fold) |
| Cc1ccc(NC(=O)C(C)(C)O)nc1Nc1ncc(C(=O)Nc2c(C)ccc(O)c2C)s1.Cl [BAA-342, N-(3-Hydroxy-2,6-dimethylphenyl)-2-((6-(2-hydroxy-2-methylpropanamido)-3-methylpyridin-2-yl)amino)thiazole-5-carboxamide hydrochloride] | < 100 nM | Y (>20 fold) | > 5000 nM |  |  |  | < 50 nM | > 11000 nM | X (100-<1000 fold) |
| CCN(C(=O)Cn1cc(C)c(Nc2ncc(C(=O)Nc3c(C)ccc(O)c3C)s2)n1)C1CC1 [BAA-551, 2-((1-(2-(cyclopropyl(ethyl)amino)-2-oxoethyl)-4-methyl-1H-pyrazol-3-yl)amino)-N-(3-hydroxy-2,6-dimethylphenyl)thiazole-5-carboxamide] | < 100 nM | Y (>20 fold) | 500 to 5000 nM | < 50 nM | 1000 to 11000 nM | X (100-<1000 fold) |  |  |  |
| COc1cc(-c2cccc(Nc3ncc(C(=O)Nc4c(C)ccc(O)c4C)s3)n2)cc(OC)c1OC [BAA-317, N-(3-hydroxy-2,6-dimethylphenyl)-2-((6-(3,4,5-trimethoxyphenyl)pyridin-2-yl)amino)thiazole-5-carboxamide] | < 100 nM | Y (>20 fold) | 500 to 5000 nM |  |  |  | < 50 nM | > 11000 nM | Y (1000-5000 fold) |
| Cc1ccc(O)c(C)c1NC(=O)c1cnc(Nc2c3cccnc3nn2C)s1 [BAA-243, N-(3-hydroxy-2,6-dimethylphenyl)-2-((2-methyl-2H-pyrazolo[3,4-b]pyridin-3-yl)amino)thiazole-5-carboxamide] | < 100 nM | X (3-20 fold) | > 5000 nM |  |  |  | < 50 nM | 1000 to 11000 nM | X (100-<1000 fold) |
| Cc1cn(C2COC2)nc1Nc1ncc(C(=O)Nc2c(C)ccc(O)c2C)s1 [BAA-269, N-(3-hydroxy-2,6-dimethylphenyl)-2-((4-methyl-1-(oxetan-3-yl)-1H-pyrazol-3-yl)amino) thiazole-5-carboxamide] | < 100 nM | Y (>20 fold) | 500 to 5000 nM |  |  |  | < 50 nM | 50 to 1000 nM | W (10-<100 fold) |
| Cc1cn(CC(=O)N(C)C2CCC2)nc1Nc1ncc(C(=O)Nc2c(C)ccc(O)c2C)s1 [BAA-595, 2-((1-(2-(cyclobutyl(methyl)amino)-2-oxoethyl)-4-methyl-1H-pyrazol-3-yl)amino)-N-(3-hydroxy-2,6-dimethylphenyl)thiazole-5-carboxamide] | < 100 nM | Y (>20 fold) | > 5000 nM | < 50 nM | 1000 to 11000 nM | X (100-<1000 fold) |  |  |  |
| Cc1ccc(O)c(C)c1NC(=O)c1cnc(Nc2cccc(-c3ccc(C(F)(F)F)cc3)n2)s1 [BAA-316, N-(3-hydroxy-2,6-dimethylphenyl)-2-((6-(4-(trifluoromethyl)phenyl)pyridin-2-yl)amino)thiazole-5-carboxamide] | 100 to 1000 nM | Y (>20 fold) | 500 to 5000 nM |  |  |  | 50 to 1000 nM | > 11000 nM | Y (1000-5000 fold) |
| Cc1ccc(O)c(C)c1NC(=O)c1cnc(Nc2cc(C(F)(F)F)nc(N3CCOCC3)n2)s1 [BAA-326, N-(3-hydroxy-2,6-dimethylphenyl)-2-((2-morpholino-6-(trifluoromethyl)pyrimidin-4-yl)amino)thiazole-5-carboxamide] | < 100 nM | Y (>20 fold) | 500 to 5000 nM |  |  |  | 50 to 1000 nM | > 11000 nM | X (100-<1000 fold) |
| CCc1cn(CCF)nc1Nc1ncc(C(=O)Nc2c(C)ccc(O)c2C)s1 [BAA-588, 2-((4-ethyl-1-(2-fluoroethyl)-1H-pyrazol-3-yl)amino)-N-(3-hydroxy-2,6-dimethylphenyl)thiazole-5-carboxamide] | < 100 nM | Y (>20 fold) | 500 to 5000 nM | < 50 nM | 1000 to 11000 nM | X (100-<1000 fold) |  |  |  |
